In patent US20050014152A1, “Drug transporter and use thereof” (priority 2001, published 2005):
Structures can show the parent of a compound that is named as a salt.

How the values were obtained:
ABCA8 [1] = target: T1, ABCA8 (Homo sapiens, UniProt O94911); experiment: uptake of various isotope-labeled compounds into oocytes; format: cell-based
T1 construct: expressed in transfected cells; host or cells: Xenopus oocytes (stage V) microinjected with capped cRNA
Protocol: (§1) The cultured oocytes (n=10 to 20) were mixed with 2 to 3 ml of a medium and an isotope-labeled compound, and the mixture was then placed in a small incubator. Small amounts of the cells were serially sampled. Each oocyte was washed with a fresh MBS 3 times, and it was then dissolved in a 10% SDS solution at room temperature for 30 minutes. As such an isotope-labeled compound, ^14C-estradiol-β-glucuronide that is a model probe for MRP (multidrug resistance associated protein), a member of an ABC transporter family, was used. Subsequently, a scintillation cocktail (ACS2, manufactured by Amersham) was added thereto, and then, a radioactivity taken into the oocyte was measured with a liquid scintillation counter (LSC-3500, manufactured by Aloka).
Subsequently, the uptake of various isotope-labeled compounds into cells was measured. Measurement was carried out in the same manner as in Example 1 with the exception that the following compounds were used. • LTC4 (leukotriene C4): a substrate for MRP (an additive amount: 20 μM) • Taurocholic acid: a substrate for OAT (an additive amount: 100 μM) • TEA (tetraethylammonium): a substrate for OCT (an additive amount: 10 nM) • Digoxin: a substrate for MDR (an additive amount: 100 nM) • Doxorubicin: a substrate for MDR (an additive amount: 100 μg/ml) • PAH (para-aminohippuric acid): a substrate for MRP and OAT (an additive amount: 1 mM)

ABCA8 [2] = target: T1, ABCA8; experiment: inhibition test of the uptake of 14C-estradiol-β-glucuronide into oocytes by various compounds; format: cell-based; settings: for uptake of 14C-estradiol-β-glucuronide decreased to: inhibitor additive amount 10 μM
Protocol: An inhibition test was carried out on the protein encoded by a DNA comprising the nucleotide sequence represented by SEQ ID NO: 2. In the test, in the above described determination of the uptake of ^14C-estradiol-β-glucuronide, various types of compounds were previously added to a reaction medium, so as to examine whether or not the uptake of ^14C-estradiol-β-glucuronide was inhibited by the compounds.

ABCA8 [3] = target: T1, ABCA8; experiment: uptake of 3H-indoxyl sulfate into oocytes and its inhibition by probenecid; format: cell-based
Protocol: as §1
(§2) The same procedure was carried out as in Example 1 with the exception that ^3H-labeled indoxyl sulfate, one of the urinary toxins, was isotope-labeled with ^3H was used as a compound in a concentration of 2 μM. At the same time, a system to which probenecid was added in a concentration of 1 mM, and a system to which water was added instead of cRNA, were also subjected to the same test.

ABCA8 [4] = target: T1, ABCA8; experiment: uptake of 14C-estradiol-β-glucuronide into Xenopus oocytes injected with cRNA of the drug transporter; format: cell-based
Protocol: A mature female Xenopus purchased from Hamamatsu Animal was bred under normal conditions. Thereafter, stage V oocytes were selected therefrom, and the cells were incubated in a modified Barth's solution (MBS) containing 88 mM NaCl, 1 mM KCl, 2.4 mM NaHCO3, 15 mM Tris-Cl, 0.3 mM CaNO3, 0.82 mM MgSO4, 0.41 mM CaCl2, 10 μg/ml penicillin and 10 μg/ml streptomycin. Thereafter, cRNA was prepared by a known method using a DNA having the nucleotide sequence represented by SEQ ID NO: 1, and an aqueous solution containing the obtained cRNA was injected into the mature Xenopus oocytes by microinjection. For such microinjection, cRNA whose 5′-terminus was capped or 50 nl of water was injected into the oocytes in vitro, using an automatic injector (IM200J, Narishige, Japan). The thus injected oocytes were cultured at 17° C. for 3 days in MBS, while exchanging the medium with a new one every day. 3 days after the culture, the oocytes expressed a drug transporter.
The used cRNA was obtained by […] of cDNA from Kazusa DNA Research Institute, which has been cloned as one of full-length cDNAs obtained from human brain and has been deposited with NCBI (National Center for Biotechnology Information, USA) under accession No. AB020629.
as §1
In this case, the concentration of ^14C-estradiol-β-glucuronide in the medium was 37 nM. […]

ABCA8 [5] = target: T1, ABCA8; experiment: ATP dependency of the uptake of 14C-estradiol-β-glucuronide into oocytes; format: cell-based; settings: ATP added, up to 5 mM
Protocol: A protein encoded by a DNA comprising the nucleotide sequence represented by SEQ ID NO: 2has an ATP-binding cassette. Thus, a test was made to see ATP dependency of the uptake of ^14C-estradiol-β-glucuronide. In the test, ATP was added in the above determination of the uptake of ^14C-estradiol-[…], and the same operation was then carried out to determine the uptake of ^14C-estradiol-β-glucuronide.

[6] = substrate: O=S(=O)(O)Oc1c[nH]c2ccccc12; experiment: uptake of 3H-indoxyl sulfate into oocytes and its inhibition by probenecid; format: cell-based, human; settings: other: cRNA-injected oocytes
Protocol: as §1, §2

In the case of CCCCC/C=C\C\C=C/C=C/C=C/[C@@H](SC[C@H](NC(=O)CC[C@H](N)C(=O)O)C(=O)NCC(=O)O)[C@@H](O)CCCC(=O)O [LTC-4, leukotriene C4], the “uptake of isotope-labeled compound into oocytes” value (ABCA8 [1]; additive amount 20 μM) is reported as “taken into oocytes”.

For CN(C)C(=O)CCSC(SCCC(=O)O)c1cccc(/C=C/c2ccc3ccc(Cl)cc3n2)c1 (centres unmarked) [MK-571], the “uptake of 14C-estradiol-β-glucuronide decreased to” value (ABCA8 [2]) was “approximately 30%”.

With O=C(C(c1ccccc1)c1ccccc1)N1CCN(CC(O)COc2cccc3ncccc23)CC1 (centres unmarked) [MS-209] the “uptake of 14C-estradiol-β-glucuronide decreased to” value (ABCA8 [2]) was “approximately 30%”.

With Nc1ccc(C(=O)NCC(=O)O)cc1 [PAH, para-aminohippuric acid] the “uptake of isotope-labeled compound into oocytes” value (ABCA8 [1]; additive amount 1 mM) was “taken into oocytes”.

For CC[N+](CC)(CC)CC [TEA, tetraethylammonium], the “uptake of isotope-labeled compound into oocytes” value (ABCA8 [1]; additive amount 10 nM) was “does not have a function to transport”.

With O=S(=O)(O)Oc1c[nH]c2ccccc12 [^3H-indoxyl sulfate, indoxyl sulfate] the Vmax of uptake (ABCA8 [3]; cRNA-injected oocytes) was 5.5 pmol/hr/egg and the “uptake of 3H-indoxyl sulfate into oocytes, time course” value (ABCA8 [3]; cRNA-injected oocytes, 2 μM) was “linearly increased with time”.

With CN/C(=N/CCSCc1nc[nH]c1C)NC#N [cimetidine, Cimetidine] the “inhibitory effect on uptake of 14C-estradiol-β-glucuronide” value (“inhibitory effect on uptake” below) (ABCA8 [2]; additive amount 1 mM) was “no inhibitory effect”.

For C[C@H]1O[C@@H](O[C@H]2[C@@H](O)C[C@H](O[C@H]3[C@@H](O)C[C@H](O[C@H]4CC[C@@]5(C)[C@H](CC[C@@H]6[C@@H]5C[C@@H](O)[C@]5(C)[C@@H](C7=CC(=O)OC7)CC[C@]65O)C4)O[C@@H]3C)O[C@@H]2C)C[C@H](O)[C@@H]1O [digoxin, Digoxin], the “inhibitory effect on uptake” value (ABCA8 [2]; additive amount 0.25 mM) was “small extent of inhibitory effect” and the “uptake of isotope-labeled compound into oocytes” value (ABCA8 [1]; additive amount 100 nM) was “excreted therefrom (or its original uptake was inhibited)”.

For COc1cccc2c1C(=O)c1c(O)c3c(c(O)c1C2=O)C[C@@](O)(C(=O)CO)C[C@@H]3O[C@H]1C[C@H](N)[C@H](O)[C@H](C)O1 [doxorubicin, Doxorubicin], the “uptake of isotope-labeled compound into oocytes” value (ABCA8 [1]; additive amount 100 μg/ml) was “does not have a function to transport”.

C[C@@H]1Cc2c(Cl)cc(C(=O)N[C@@H](Cc3ccccc3)C(=O)O)c(O)c2C(=O)O1 [ochratoxin A, Ochratoxin A] was tested, and the “inhibitory effect on uptake” value (ABCA8 [2]; additive amount 50 μM) was “inhibitory effect”.

With CCCN(CCC)S(=O)(=O)c1ccc(C(=O)O)cc1 [probenecid, Probenecid] the “inhibitory effect on uptake” value (ABCA8 [2]; additive amount 1 mM) was “small extent of inhibitory effect” and the “effect on uptake of 3H-indoxyl sulfate into the cells” value (ABCA8 [3]; probenecid 1 mM, 3H-indoxyl sulfate 2 μM) was “decreased”.

In the case of C[C@H](CCC(=O)NCCS(=O)(=O)O)[C@H]1CC[C@H]2[C@@H]3[C@H](O)C[C@@H]4C[C@H](O)CC[C@]4(C)[C@H]3C[C@H](O)[C@]12C [taurocholic acid, Taurocholic acid], the “uptake of isotope-labeled compound into oocytes” value (ABCA8 [1]; additive amount 100 μM) is reported as “taken into oocytes”.

In the case of ^14C-estradiol-β-glucuronide, the “intake of 14C-estradiol-β-glucuronide into the cells” value (ABCA8 [4]; 37 nM in the medium, about 60 minutes) is reported as 138±5.5 fmol/hr/egg, the Km (ABCA8 [4]; Michaelis-Menten) is reported as 30.4 µM and the Vmax of uptake (ABCA8 [4]; Michaelis-Menten) is reported as 8.37 pmol/hr/egg. The “influence of ATP concentration on uptake into the cells” value (ABCA8 [5]) was “increased with the increase of ATP concentration”.

B1: ABCA8 (Homo sapiens) (protein)
chain: MRKRKISVCQQTWALLCKNFLKKWRMKRESLMEWLNSLLLLLCLYIYPHSHQVNDFSSLLTMDLGRVDTFNESRFSVVYTPVTNTTQQIMNKVASTPFLAGKEVLGLPDEESIKEFTANYPEEIVRVTFTNTYSYHLKFLLGHGMPAKKEHKDHTAHCYETNEDVYCEVSVFWKEGFVALQAAINAAIIEITTNHSVMEELMSVTGKNMKMHSFIGQSGVITDLYLFSCIISFSSFIYYASVNVTRERKRMKALMTMMGLRDSAFWLSWGLLYAGFIFIMALFLALVIRSTQFIILSGFMVVFSLFLLYGLSLVALAFLMSILVKKSFLTGLVVFLLTVFWGCLGFTSLYRHLPASLEWILSLLSPFAFMLGMAQLLHLDYDLNSNAFPHPSDGSNLIVATNFMLAFDTCLYLALAIYFEKILPNEYGHRRPPLFFLKSSFWSQTQKTDHVALEDEMDADPSFHDSFEQAPPEFQGKEAIRIRNVTKEYKGKPDKIEALKDLVFDIYEGQITAILGHSGAGKSTLLNILSGLSVPTKGSVTIYNNKLSEMADLENLSKLTGVCPQSNVQFDFLTVRENLRLFAKIKGILPQEVDKEIFLLDEPTAGLDPFSRHQVWNLLKERKTDRVILFSTQFMDEADILADRKVFLSQGKLKCAGSSLFLKKKWGIGYHLSLQLNEICVEENITSLVKQHIPDAKLSAKSEGKLIYTLPLERTNKFPELYKDLDSYPDLGIENYGVSMTTLNEVFLKLEGKSTINESDIAILGEVQAEKADDTERLVEMEQVLSSLNKMRKTIGGVALWRQQICAIARVRLLKLKHERKALLALLLILMAGFCPLLVEYTMVKIYQNSYTWELSPHLYFLAPGQQPHDPLTQLLIINKTGASIDDFIQSVEHQNIALEVDAFGTRNGTDDPSYNGAITVCCNEKNYSFSLACNAKRLNCFPVLMDIVSNGLLGMVKPSVHIRTERSTFLENGQDNPIGFLAYIMFWLVLTSSCPPYIAMSSIDDYKNRARSQLRISGLSPSAYWFGQALVDVSLYFLVFVFIYLMSYISNFEDMLLTIIHIIQIPCAVGYSFSLIFMTYVISFIFRKGRKNSGIWSFCFYVVTVFSVAGFAFSIFESDIPFIFTFLIPPATMIGCLFLSSHLLFSSLFSEERMDVQPFLVFLIPFLHFIIFLFTLRCLEWKFGKKSMRKDPFFRISPRSSDVCQNPEEPEGEDEDVQMERVRTANALNSTNFDEKPVIIASCLRKEYAGKRKGCFSKRKNKIATRNVSFCVRKGEVLGLLGHNGAGKSTSIKVITGDTKPTAGQVLLKGSGGGDALEFLGYCPQENALWPNLTVRQHLEVYAAVKGLRKGDAEVAITRLVDALKLQDQLKSPVKTLSEGIKRKLCFVLSILGNPSVVLLDEPSTGMDPEGQQQMWQAIRATFRNTERGALLTTHYMAEAEAVCDRVAIMVSGRLRCIGSIQHLKSKFGKDYLLEMKVKNLAQVEPLHAEILRLFPQAARQERYSSLMVYKLPVEDVQPLAQAFFKLEKVKQSFDLEEYSLSQSTLEQVFLELSKEQELGDFEEDFDPSVKWKLLPQEEP
notes: expressed in transfected cells; host or cells: Xenopus oocytes (stage V) microinjected with capped cRNA
Work on B1 yielded a Km [6] of 25.5 µM.
